Reference: patent US20040127571A1 (UNIVERSITY OF SOUTH FLORIDA, priority 2002, published 2004)

Experiments:
[1] = system: imatinib refractory (resistant) cells; assay: Apoptosis of imatinib refractory cells after SAHA; type: cell-based
K562 cells = assay: Apoptosis of K562 cells after SAHA exposure; type: cell-based; details: 1.0 to 10.0 uM SAHA for 48 hours; FIG. 2A
p27 (gene) = details: previously shown; cited from earlier work
histones (H3), p21 = assay: Histone acetylation and p21 expression after SAHA (FIG. 2B); type: cell-based
From the text: (§1) Moreover, exposure to SAHA increases the acetylation of histones (H3) and the expression of p21 (FIG. 2B). […] SAHA downregulates the levels and auto-phosphorylation, the addition of a phosphate group, of Bcr-Abl (FIG. 2C).

Lama-84 cells = assay: Apoptosis of Lama-84 cells after SAHA exposure; type: cell-based; details: 1.0 to 10.0 uM SAHA for 48 hours; FIG. 2A
p27 in K562 cells = assay: p27 expression in K562 cells after SAHA (FIG. 2B); type: cell-based
From the text: as §1

p27 in LAMA cells = assay: p27 expression in LAMA cells after SAHA (FIG. 2B); type: cell-based
From the text: as §1

K562 = assay: Cell cycle distribution of K562 cells after SAHA; type: cell-based; details: 1.0 to 5.0 uM SAHA for 48 hours; dose-dependent
Protocol: Treatment with 1.0 to 5.0 uM SAHA for 48 hours increased the percentage of K562 in the G1 (the gap in the cell division cycle between mitosis and synthesis) phase of the cell cycle in a dose-dependent manner.

Bcr-Abl = Bcr-Abl levels and auto-phosphorylation after SAHA (FIG. 2C); type: cell-based
From the text: as §1

## O=C(CCCCCCC(=O)Nc1ccccc1)NO [SAHA, Suberoylanilide Hydromaxic Acid]
[1]
  apoptosis in imatinib refractory (resistant) cells: induces apoptosis
K562 cells
  apoptosis of K562 cells: dose-dependent increase
p27 (gene)
  acetylation of histones of the chromatin associated with p27 (gene) / its transcription: not to induce acetylation
Histones (H3), p21
  acetylation of histones (H3): increases
  expression of p21: increases
Lama-84 cells
  apoptosis of Lama-84 cells: dose-dependent increase
p27 in K562 cells
  p27 expression: induced p27 expression
p27 in LAMA cells
  p27 expression: induced p27 expression
K562
  percentage of K562 in the G1 phase of the cell cycle: increased
Bcr-Abl
  auto-phosphorylation of Bcr-Abl: downregulates
  levels of Bcr-Abl: downregulates
